The values that follow come from paper PMC11433937, “Privileged Scaffold Hybridization in the Design of Carbonic Anhydrase Inhibitors” (Molecules, 2024).

pKi: −log10 of the molar value. Bounds are passed on as bounds.

The target of data set [1] is hCA I (Homo sapiens, UniProt P00915). As to the kind of experiment: Stopped-flow CA-catalyzed CO2 hydration inhibition assay.
Experimental: (§1) A stopped-flow instrument was used, according to the previously reported methodology, to measure the CA (carbonic anhydrase)-catalyzed CO2 hydration/inhibition [46]. For 10 to 100 s, the CA-catalyzed CO2 hydration reaction’s initial rates were observed. […] Stock solutions of inhibitors (10 mM) and dilutions up to 0.01 nM were prepared in distilled-deionized water. Before the experiment started, the inhibitor and enzyme solutions were preincubated for 15 min at room temperature to allow for the formation of the enzyme/inhibitor (E/I) complex.
Data set [2] addresses hCA II (Homo sapiens, UniProt P00918). Described as above.
Experimental: as §1
Data set [3] addresses T1, hCA IX (Homo sapiens, UniProt Q16790). Described as above.
Experimental: as §1
For data set [4], the target named is T2, hCA XII (Homo sapiens, UniProt O43570). The data set is described as above.
Experimental: as §1
Data set [5] deals with T1, hCA IX. Further details: method as in PMID 27775452. The conditions noted are these: previously synthesized compound; cited from earlier work.
The target of data set [6] is T2, hCA XII. Set-up: method as in PMID 27775452. To be noted: previously synthesized compound; cited from earlier work.

Sequence of hCA I (P00915 whole entry): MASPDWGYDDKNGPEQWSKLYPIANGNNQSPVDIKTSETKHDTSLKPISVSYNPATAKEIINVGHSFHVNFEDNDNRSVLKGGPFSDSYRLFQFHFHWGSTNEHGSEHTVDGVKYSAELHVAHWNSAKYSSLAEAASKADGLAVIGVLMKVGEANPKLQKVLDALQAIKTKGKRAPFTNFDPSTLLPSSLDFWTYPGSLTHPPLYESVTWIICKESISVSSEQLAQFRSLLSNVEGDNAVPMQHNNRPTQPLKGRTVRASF
T2 sequence (O43570 30-289 limits assumed): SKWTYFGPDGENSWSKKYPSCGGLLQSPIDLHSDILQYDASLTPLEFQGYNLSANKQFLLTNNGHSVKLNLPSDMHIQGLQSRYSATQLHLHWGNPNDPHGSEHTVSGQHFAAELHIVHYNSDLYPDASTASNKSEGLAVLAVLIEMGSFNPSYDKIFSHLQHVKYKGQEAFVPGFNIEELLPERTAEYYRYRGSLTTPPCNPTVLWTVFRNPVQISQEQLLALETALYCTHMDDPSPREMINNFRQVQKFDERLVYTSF

As for `NS(=O)(=O)c1ccc(NN2C(=O)/C(=C3/C(=O)Nc4ccc([N+](=O)[O-])cc43)SC2=Nc2ccccc2)cc1` [5b, 4-((5-((Z)-5-nitro-2-oxoindolin-3-ylidene)-4-oxo-2-(phenylimino)thiazolidin-3-yl)amino)benzenesulfonamide], the melting point fell in the range of 338.5 to 340 °C. This compound also gave a pKi in data set [1] of 5.22. This compound also showed a negative logarithm of the Ki (pKi) in data set [2] of 6.80. The compound further had a pKi in data set [3] of 7.46. For the same compound, the pKi in data set [4] is 8.12.
In turn, `NS(=O)(=O)c1ccc(NN2C(=O)/C(=C3/C(=O)Nc4ccc(Br)cc43)SC2=Nc2ccccc2)cc1` [5d, 4-((5-((Z)-5-bromo-2-oxoindolin-3-ylidene)-4-oxo-2-(phenylimino)thiazolidin-3-yl)amino)benzenesulfonamide] showed a melting point of 331.4 to 332.7 °C. Besides, the pKi in data set [1] was < 5.00. The pKi in data set [2] was 6.98. This compound also showed a pKi in data set [3] of 7.06. This compound also gave a pKi in data set [4] of 6.71.
Consider `NS(=O)(=O)c1ccc(NN2C(=O)/C(=C3/C(=O)Nc4ccccc43)SC2=Nc2ccccc2)cc1` [5g, 4-((4-oxo-5-((Z)-2-oxoindolin-3-ylidene)-2-(phenylimino)thiazolidin-3-yl)amino)benzenesulfonamide], for which the pKi was 5.28 in data set [1], 8.02 in data set [2], 8.60 in data set [3] and 7.77 in data set [4].
For the compound `CN1C(=O)/C(=C2/C(=O)Nc3c(F)cccc32)S/C1=N\c1ccc(S(N)(=O)=O)cc1` [EMAC10020m], the “inhibitory activity against hCA IX” value in data set [5] is “in the nanomolar range”. Besides, in data set [6], the “inhibitory activity against hCA XII” value is given as “in the nanomolar range”.
On to `NS(=O)(=O)c1ccc(NN2C(=O)/C(=C3/C(=O)Nc4ccc(Cl)cc43)SC2=Nc2ccccc2)cc1` [5a, 4-((5-((Z)-5-chloro-2-oxoindolin-3-ylidene)-4-oxo-2-(phenylimino)thiazolidin-3-yl)amino)benzenesulfonamide], for which the melting point fell in the range of 314.2 to 316.1 °C. Besides, the pKi in data set [1] was 5.34. The pKi in data set [2] is 6.61. Besides, the pKi in data set [3] was 7.00. Moreover, the pKi in data set [4] is 7.21.
`NS(=O)(=O)c1ccc(NN2C(=O)/C(=C3/C(=O)Nc4c(Br)cccc43)SC2=Nc2ccccc2)cc1` [5i, 4-((5-((Z)-7-bromo-2-oxoindolin-3-ylidene)-4-oxo-2-(phenylimino)thiazolidin-3-yl)amino)benzenesulfonamide] had a melting point of 344.9 to 346 °C. In data set [1], the pKi is 5.11. In addition, the pKi in data set [2] was 7.75. This compound had a pKi in data set [3] of 7.30. This compound showed a pKi in data set [4] of 7.03.
The compound `Cc1ccc2c(c1)/C(=C1/SC(=Nc3ccccc3)N(Nc3ccc(S(N)(=O)=O)cc3)C1=O)C(=O)N2` [5f, 4-((5-((Z)-5-methyl-2-oxoindolin-3-ylidene)-4-oxo-2-(phenylimino)thiazolidin-3-yl)amino)benzenesulfonamide] yielded a melting point of 333.9 to 334.6 °C. Also, the pKi in data set [1] is < 5.00. For the same compound, the pKi in data set [2] is 7.15. Besides, in data set [3], the pKi was 7.83. Further, in data set [3] (ratio of Ki hCA II to Ki hCA IX), the “selectivity index SI hCA II/hCA IX” value amounted to 4.75. The same compound had a pKi in data set [4] of 9.22. The “selectivity index SI hCA II/hCA XII” value in data set [4] (ratio of Ki hCA II to Ki hCA XII) turned out to be 118.
In turn, `COc1ccc2c(c1)/C(=C1/SC(=Nc3ccccc3)N(Nc3ccc(S(N)(=O)=O)cc3)C1=O)C(=O)N2` [5e, 4-((5-((Z)-5-methoxy-2-oxoindolin-3-ylidene)-4-oxo-2-(phenylimino)thiazolidin-3-yl)amino)benzenesulfonamide] showed a melting point of 328.8 to 330.1 °C. The compound further gave a pKi in data set [1] of 5.04. In data set [2], the pKi was 8.02. The pKi in data set [3] is 8.30. The pKi in data set [4] is 7.27.
For the compound `NS(=O)(=O)c1ccc(NN2C(=O)/C(=C3/C(=O)Nc4ccc(F)cc43)SC2=Nc2ccccc2)cc1` [5c, 4-((5-((Z)-5-fluoro-2-oxoindolin-3-ylidene)-4-oxo-2-(phenylimino)thiazolidin-3-yl)amino)benzenesulfonamide], the melting point fell in the range of 297.5 to 299.8 °C. The pKi in data set [1] was 5.23. The same compound gave a pKi in data set [2] of 8.16. This compound gave a pKi in data set [3] of 7.64. The pKi in data set [4] is 7.66.
In the case of `NS(=O)(=O)c1ccc(NN2C(=O)/C(=C3/C(=O)Nc4c(F)cccc43)SC2=Nc2ccccc2)cc1` [5h, 4-((5-((Z)-7-fluoro-2-oxoindolin-3-ylidene)-4-oxo-2-(phenylimino)thiazolidin-3-yl)amino)benzenesulfonamide], the melting point lay in the range of 336.1 to 336.6 °C. The compound further showed a pKi in data set [1] of 5.18. In data set [2], this compound gave a negative logarithm of the Ki (pKi) of 8.39. Moreover, the negative-log Ki (pKi) in data set [3] was 7.90. Besides, in data set [4], the pKi is 8.89.

The term melting point denotes the temperature of the solid-liquid transition. One may read the pKi as the negative decadic logarithm of the Ki, by convention in mol/L. Low values mean a large Ki, high ones a small Ki.
